Reference: ChEMBL document CHEMBL1201862, “PubChem BioAssay data set” (2004)
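Assay format: 96-well plates, 48-hour exposure. GI50 is the concentration that inhibits growth by half.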 Active and inactive are the calls of the source. Rule as the data show it: active = GI50 up to about 1.1 µM and inactive = higher.

Assays:
Assay in all cases: NCI anticancer screen, dose series, 48 h
SK-MEL-5 = test system: SK-MEL-5
SN12C = test system: SN12C
NCI-H460 = test system: NCI-H460
PC-3 = test system: PC-3
UO-31 = test system: UO-31
MOLT-4 = test system: MOLT-4
NCI-H226 = test system: NCI-H226
SW-620 = test system: SW-620
A549 = test system: A549
OVCAR-4 = test system: OVCAR-4
SR = test system: SR
HOP-92 = test system: HOP-92
SNB-75 = test system: SNB-75
HCT-15 = test system: HCT-15
CAKI-1 = test system: CAKI-1
SF-539 = test system: SF-539
DU-145 = test system: DU-145
OVCAR-3 = test system: OVCAR-3
Hs-578T = test system: Hs-578T
SF-268 = test system: SF-268
SK-MEL-2 = test system: SK-MEL-2
NCI/ADR-RES = test system: NCI/ADR-RES
EKVX = test system: EKVX
RPMI-8226 = test system: RPMI-8226
HCT-116 = test system: HCT-116
CCRF-CEM = test system: CCRF-CEM
RXF 393 = test system: RXF 393
HL-60 = test system: HL-60
MDA-MB-231 = test system: MDA-MB-231
786-0 = test system: 786-0
SK-MEL-28 = test system: SK-MEL-28
LOX IMVI = test system: LOX IMVI
NCI-H522 = test system: NCI-H522
HT-29 = test system: HT-29
UACC-257 = test system: UACC-257
SF-295 = test system: SF-295
TK-10 = test system: TK-10
M14 = test system: M14
MDA-N = test system: MDA-N
OVCAR-8 = test system: OVCAR-8
COLO 205 = test system: COLO 205
SNB-19 = test system: SNB-19
MDA-MB-435 = test system: MDA-MB-435
UACC-62 = test system: UACC-62
ACHN = test system: ACHN
IGROV-1 = test system: IGROV-1
MCF7 = test system: MCF7
A498 = test system: A498
KM12 = test system: KM12
NCI-H23 = test system: NCI-H23
OVCAR-5 = test system: OVCAR-5
U-251 = test system: U-251
HCC 2998 = test system: HCC 2998
SK-OV-3 = test system: SK-OV-3
HOP-62 = test system: HOP-62
T47D = test system: T47D
Malme-3M = test system: Malme-3M

Measured: GI50

Clc1cc(-c2csc(Cl)c2)cs1
inactive: SK-MEL-5 > 100 µM | SN12C > 100 µM | NCI-H460 > 100 µM | PC-3 > 100 µM | UO-31 > 100 µM | MOLT-4 > 100 µM | NCI-H226 > 100 µM | SW-620 > 100 µM | A549 > 100 µM | OVCAR-4 > 100 µM | SR > 100 µM | HOP-92 > 100 µM | SNB-75 > 100 µM | CAKI-1 > 100 µM | SF-539 > 100 µM | DU-145 > 100 µM | OVCAR-3 > 100 µM | Hs-578T > 100 µM | SF-268 > 100 µM | SK-MEL-2 > 100 µM | NCI/ADR-RES > 100 µM | EKVX > 100 µM | RPMI-8226 > 100 µM | HCT-116 > 100 µM | CCRF-CEM > 100 µM | RXF 393 > 100 µM | HL-60 > 100 µM | MDA-MB-231 > 100 µM | 786-0 > 100 µM | SK-MEL-28 > 100 µM | LOX IMVI > 100 µM | NCI-H522 > 100 µM | HT-29 > 100 µM | UACC-257 > 100 µM | SF-295 > 100 µM | TK-10 > 100 µM | M14 > 100 µM | MDA-N > 100 µM | OVCAR-8 > 100 µM | COLO 205 > 100 µM | SNB-19 > 100 µM | MDA-MB-435 > 100 µM | UACC-62 > 100 µM | ACHN > 100 µM | IGROV-1 > 100 µM | MCF7 > 100 µM | A498 > 100 µM | KM12 > 100 µM | NCI-H23 > 100 µM | OVCAR-5 > 100 µM | U-251 > 100 µM
> 100 µM: HCT-15

c1csc(-c2csc(-c3cccs3)c2)c1
27.7 µM: HCT-15
inactive: SK-MEL-5 18.7 µM | SN12C 34.2 µM | NCI-H460 88.3 µM | PC-3 29.7 µM | UO-31 57.8 µM | MOLT-4 28.6 µM | SW-620 35.9 µM | A549 30.8 µM | OVCAR-4 77.4 µM | HCC 2998 48.5 µM | SR 23.5 µM | HOP-92 17.7 µM | SNB-75 50.5 µM | CAKI-1 84.3 µM | SF-539 > 100 µM | SK-OV-3 95.9 µM | DU-145 > 100 µM | OVCAR-3 29.4 µM | Hs-578T 51.3 µM | SF-268 84.5 µM | SK-MEL-2 20.2 µM | NCI/ADR-RES > 100 µM | EKVX 39.8 µM | RPMI-8226 24.3 µM | HCT-116 21.9 µM | CCRF-CEM 49.2 µM | RXF 393 6.1 µM | HL-60 37.5 µM | MDA-MB-231 > 100 µM | 786-0 52.1 µM | SK-MEL-28 > 100 µM | LOX IMVI 57.7 µM | NCI-H522 29.4 µM | HT-29 > 100 µM | UACC-257 40 µM | SF-295 35.9 µM | HOP-62 63.1 µM | T47D 3.2 µM | TK-10 67.1 µM | M14 58.1 µM | OVCAR-8 > 100 µM | COLO 205 18 µM | SNB-19 32.4 µM | MDA-MB-435 25.8 µM | UACC-62 20.8 µM | ACHN > 100 µM | IGROV-1 78.5 µM | MCF7 8.85 µM | A498 > 100 µM | KM12 28.9 µM | Malme-3M 51.8 µM | NCI-H23 24.3 µM | OVCAR-5 > 100 µM | U-251 77.4 µM
